Measurements published in patent US12540141B2, “Spiropyrrolidine derived antiviral agents” (priority 2020, dated 2026).

Target: SARS-CoV-2 3CL-protease (Severe acute respiratory syndrome coronavirus 2, UniProt P0DTD1)
Assay: SARS-CoV-2 3C-Like (3CL) Protease Fluorescence Assay (FRET)
Format: biochemical
Conditions: SARS-CoV-2 3CL-protease 10 nM, 30 min preincubation at RT, substrate 40 μM

Row | SMILES | IC50 [nM]
1 | CCCOC[C@H](NC(=O)c1cc2c(OC)cccc2[nH]1)C(=O)N1C[C@]2(C[C@H]1C#N)C(=O)Nc1ccccc12 [Example 126] | < 100
2 | C#CCOC[C@H](NC(=O)c1cc2c(OC)cccc2[nH]1)C(=O)N1C[C@]2(C[C@H]1C#N)C(=O)Nc1ccccc12 [Example 127] | < 100
3 | CC(C)(C)OC(=O)NC[C@H](NC(=O)c1cc2c(F)cc(F)cc2[nH]1)C(=O)N1C[C@]2(C[C@H]1C#N)C(=O)Nc1ccccc12 [Example 128] | > 1000
4 | N#C[C@@H]1C[C@@]2(CN1C(=O)[C@H](COCc1cnn[nH]1)NC(=O)c1cc3c(F)cc(F)cc3[nH]1)C(=O)Nc1ccccc12 [Example 129] | > 1000
5 | C[C@@H](CC(=O)N[C@@H](CC(C)(C)C)C(=O)N1C[C@]2(C[C@H]1C#N)C(=O)Nc1ccccc12)NC(=O)OCc1ccccc1 [Example 130] | 100 to 1000
6 | CCCC[C@H](NC(=O)c1cnn(C(C)(C)C)c1)C(=O)N1C[C@]2(C[C@H]1C#N)C(=O)Nc1ccccc12 [Example 131] | < 100
7 | CC(C)(C)n1cc(C(=O)N[C@@H](CC2CC2)C(=O)N2C[C@]3(C[C@H]2C#N)C(=O)Nc2ccccc23)cn1 [Example 132] | < 100
8 | CC(C)(C)C[C@H](NC(=O)c1cnn(C(C)(C)C)c1)C(=O)N1C[C@]2(C[C@H]1C#N)C(=O)Nc1ccccc12 [Example 133] | < 100
9 | CC(C)(C)C[C@H](NC(=O)c1ccc2ncc(C(F)(F)F)cc2c1)C(=O)N1C[C@]2(C[C@H]1C#N)C(=O)Nc1ccccc12 [Example 134] | 100 to 1000
10 | Cc1cnc2ccc(C(=O)N[C@@H](CC(C)(C)C)C(=O)N3C[C@]4(C[C@H]3C#N)C(=O)Nc3ccccc34)cc2c1 [Example 135] | < 100
11 | CC(C)(C)C[C@H](NC(=O)c1ccc2ncc(C3CC3)cc2c1)C(=O)N1C[C@]2(C[C@H]1C#N)C(=O)Nc1ccccc12 [Example 136] | < 100
12 | CC(C)(C)C[C@H](NC(=O)c1cc(OC(F)(F)F)c2ncccc2c1)C(=O)N1C[C@]2(C[C@H]1C#N)C(=O)Nc1ccccc12 [Example 137] | < 100
13 | CC(C)(C)C[C@H](NC(=O)c1cc(Cl)c2ncccc2c1)C(=O)N1C[C@]2(C[C@H]1C#N)C(=O)Nc1ccccc12 [Example 138] | < 100
14 | CC(C)(C)C[C@H](NC(=O)c1cc(OC(F)F)c2ncccc2c1)C(=O)N1C[C@]2(C[C@H]1C#N)C(=O)Nc1ccccc12 [Example 139] | < 100
15 | CC(C)(C)C[C@H](NC(=O)c1cn(-c2ccc(Cl)cc2)nn1)C(=O)N1C[C@]2(C[C@H]1C#N)C(=O)Nc1ccccc12 [Example 140] | 100 to 1000
16 | CC(C)(C)C[C@H](NC(=O)c1cn(C2CC2)nn1)C(=O)N1C[C@]2(C[C@H]1C#N)C(=O)Nc1ccccc12 [Example 141] | < 100
17 | CC(C)(C)C[C@H](NC(=O)c1cn(-c2cccc(Cl)c2)nn1)C(=O)N1C[C@]2(C[C@H]1C#N)C(=O)Nc1ccccc12 [Example 142] | 100 to 1000
18 | CC(C)(C)C[C@H](NC(=O)c1cn(CC(F)(F)F)nn1)C(=O)N1C[C@]2(C[C@H]1C#N)C(=O)Nc1ccccc12 [Example 143] | < 100
19 | CC(C)(C)C[C@H](NC(=O)c1cnn(CC(F)(F)F)c1)C(=O)N1C[C@]2(C[C@H]1C#N)C(=O)Nc1ccccc12 [Example 144] | < 100
20 | CC(C)(C)C[C@H](NC(=O)c1cnn(-c2ccc(C(F)(F)F)cc2)c1)C(=O)N1C[C@]2(C[C@H]1C#N)C(=O)Nc1ccccc12 [Example 145] | < 100

Row | SMILES | IC50 [nM]
21 | Cc1cc2cc(C(=O)N[C@@H](CC(C)(C)C)C(=O)N3C[C@]4(C[C@H]3C#N)C(=O)Nc3ccccc34)cc(Cl)c2nc1C [Example 147] | < 100
22 | CC(C)(C)C[C@H](NC(=O)c1cn(C2CCC2)nn1)C(=O)N1C[C@]2(C[C@H]1C#N)C(=O)Nc1ccccc12 [Example 148] | < 100
23 | CC(C)C[C@@H](C(=O)N1C[C@]2(C[C@H]1C=O)C(=O)Nc1ccccc12)N(C)C(=O)c1cc2c(F)cc(F)cc2[nH]1 [Example 149] | < 100
24 | CC(C)C[C@@H](C(=O)N1C[C@]2(C[C@H]1C=O)C(=O)Nc1ccccc12)N(C)C(=O)c1cc2c(F)cc(F)c(F)c2[nH]1 [Example 150] | < 100
25 | CC(C)C[C@H](NC(=O)c1ccc(-c2ccccc2)[nH]1)C(=O)N1C[C@]2(C[C@H]1C#N)C(=O)Nc1ccccc12 [Example 151] | > 1000
26 | CC(C)C[C@@H](C(=O)N1C[C@]2(C[C@H]1C(O)S(=O)(=O)O)C(=O)Nc1ccccc12)N(C)C(=O)c1cc2c(F)cc(F)cc2[nH]1 (stereo partly drawn) [Example 153] | < 100
27 | CC(C)C[C@@H](C(=O)N1C[C@]2(C[C@H]1C(O)S(=O)(=O)O)C(=O)Nc1ccccc12)N(C)C(=O)c1cc2c(F)cc(F)c(F)c2[nH]1 (stereo partly drawn) [Example 154] | < 100
28 | CC(C)C[C@@H](C(=O)N1C[C@]2(C[C@H]1C(=O)C(=O)NC1CCCCC1)C(=O)Nc1ccccc12)N(C)C(=O)c1cc2c(F)cc(F)cc2[nH]1 [Example 155] | > 1000
29 | CC(C)C[C@@H](C(=O)N1C[C@]2(C[C@H]1C(=O)CO)C(=O)Nc1ccccc12)N(C)C(=O)c1cc2c(F)cc(F)cc2[nH]1 [Example 157] | > 1000
30 | CC(C)C[C@@H](C(=O)N1C[C@]2(C[C@H]1C(=O)CO)C(=O)Nc1ccccc12)N(C)C(=O)c1cc2c(F)cc(F)c(F)c2[nH]1 [Example 158] | > 1000
31 | CC(C)C[C@@H](C(=O)N1C[C@]2(C[C@H]1C(=O)CCl)C(=O)Nc1ccccc12)N(C)C(=O)c1cc2c(F)cc(F)c(F)c2[nH]1 [Example 159] | > 1000
32 | CC(C)C[C@@H](C(=O)N1C[C@]2(C[C@H]1C#N)C(=O)Nc1ccccc12)N(C(=O)OCc1ccccc1)C(C)C [Example 160] | > 1000
33 | CC(C)N(C(=O)OC(C)(C)C)[C@@H](Cc1ccccc1)C(=O)N1C[C@]2(C[C@H]1C#N)C(=O)Nc1ccccc12 [Example 161] | > 1000
34 | CC(C)C[C@@H](C(=O)N1C[C@]2(C[C@H]1C#N)C(=O)Nc1ccccc12)N(C)C(=O)c1ccccc1Cl [Example 162] | < 100
35 | CC(C)C[C@@H](C(=O)N1C[C@]2(C[C@H]1C#N)C(=O)Nc1ccccc12)N(C)C(=O)c1ccc(Cl)cc1 [Example 163] | 100 to 1000
36 | CC(C)C[C@@H](C(=O)N1C[C@]2(C[C@H]1C#N)C(=O)Nc1ccccc12)N(C)C(=O)c1cccc(F)c1Cl [Example 164] | < 100
37 | CC(C)C[C@@H](C(=O)N1C[C@]2(C[C@H]1C#N)C(=O)Nc1ccccc12)N(C)C(=O)c1ccc(C#N)c(Cl)c1 [Example 165] | 100 to 1000
38 | CC(C)C[C@@H](C(=O)N1C[C@]2(C[C@H]1C#N)C(=O)Nc1ccccc12)N(C)C(=O)c1ccc(Cl)c(Cl)c1 [Example 166] | < 100
39 | CC(C)C[C@@H](C(=O)N1C[C@]2(C[C@H]1C#N)C(=O)Nc1ccccc12)N(C)C(=O)c1cccc(Cl)c1 [Example 167] | < 100
40 | CC(C)C[C@@H](C(=O)N1C[C@]2(C[C@H]1C#N)C(=O)Nc1ccccc12)N(C)C(=O)c1ccc(Cl)cc1Cl [Example 168] | < 100

Row | SMILES | IC50 [nM]
41 | CC(C)C[C@@H](C(=O)N1C[C@]2(C[C@H]1C#N)C(=O)Nc1ccccc12)N(C)C(=O)c1c(Cl)ccc(Cl)c1F [Example 169] | < 100
42 | COc1ccc(Cl)cc1C(=O)N(C)[C@@H](CC(C)C)C(=O)N1C[C@]2(C[C@H]1C#N)C(=O)Nc1ccccc12 [Example 170] | < 100
43 | CC(C)C[C@@H](C(=O)N1C[C@]2(C[C@H]1C#N)C(=O)Nc1ccccc12)N(C)C(=O)c1cc(Cl)c(F)cc1F [Example 171] | < 100
44 | CC(C)C[C@@H](C(=O)N1C[C@]2(C[C@H]1C#N)C(=O)Nc1ccccc12)N(C)C(=O)c1cc(Cl)cc(Cl)c1 [Example 172] | < 100
45 | CC(C)C[C@@H](C(=O)N1C[C@]2(C[C@H]1C#N)C(=O)Nc1ccccc12)N(C)C(=O)c1cc(F)cc(Cl)c1 [Example 173] | < 100
46 | CC(C)C[C@@H](C(=O)N1C[C@]2(C[C@H]1C#N)C(=O)Nc1ccccc12)N(C)C(=O)c1ccc(Cl)c(C(F)(F)F)c1 [Example 174] | < 100
47 | CC(C)C[C@@H](C(=O)N1C[C@]2(C[C@H]1C#N)C(=O)Nc1ccccc12)N(C)C(=O)c1ccc(Cl)c(F)c1F [Example 175] | < 100
48 | CC(C)C[C@@H](C(=O)N1C[C@]2(C[C@H]1C#N)C(=O)Nc1ccccc12)N(C)C(=O)c1ccc(F)c(C(F)(F)F)c1 [Example 177] | < 100
49 | CC(C)C[C@@H](C(=O)N1C[C@]2(C[C@H]1C#N)C(=O)Nc1ccccc12)N(C)C(=O)c1ccc(F)c(F)c1 [Example 178] | < 100
50 | CC(C)C[C@@H](C(=O)N1C[C@]2(C[C@H]1C#N)C(=O)Nc1ccccc12)N(C)C(=O)c1ccc(OC(F)(F)F)c(F)c1 [Example 179] | < 100
51 | COc1ccc(C(=O)N(C)[C@@H](CC(C)C)C(=O)N2C[C@]3(C[C@H]2C#N)C(=O)Nc2ccccc23)cc1C(F)(F)F [Example 181] | < 100
52 | COc1ccc(C(=O)N(C)[C@@H](CC(C)C)C(=O)N2C[C@]3(C[C@H]2C#N)C(=O)Nc2ccccc23)cc1F [Example 182] | < 100
53 | CC(C)C[C@@H](C(=O)N1C[C@]2(C[C@H]1C#N)C(=O)Nc1ccccc12)N(C)C(=O)c1c(Cl)cc(Cl)cc1Cl [Example 185] | < 100
54 | CC(C)C[C@@H](C(=O)N1C[C@]2(C[C@H]1C#N)C(=O)Nc1ccccc12)N(C)C(=O)c1c(Cl)cc(F)cc1Cl [Example 186] | < 100
55 | CC(C)C[C@@H](C(=O)N1C[C@]2(C[C@H]1C#N)C(=O)Nc1ccccc12)N(C)C(=O)c1cc(Cl)cc(C#N)c1 [Example 187] | < 100
56 | CC(C)C[C@@H](C(=O)N1C[C@]2(C[C@H]1C#N)C(=O)Nc1ccccc12)N(C)C(=O)c1cccc(OC(F)F)c1 [Example 188] | < 100
57 | CC(C)C[C@@H](C(=O)N1C[C@]2(C[C@H]1C#N)C(=O)Nc1ccccc12)N(C)C(=O)c1cccc(OC(F)(F)F)c1 [Example 189] | 100 to 1000
58 | CC(C)C[C@@H](C(=O)N1C[C@]2(C[C@H]1C#N)C(=O)Nc1ccccc12)N(C)C(=O)c1ccc2c(c1)OC(F)(F)O2 [Example 190] | 100 to 1000
59 | COc1ccnc(C(=O)N(C)[C@@H](CC(C)C)C(=O)N2C[C@]3(C[C@H]2C#N)C(=O)Nc2ccccc23)c1 [Example 192] | 100 to 1000
60 | COc1ccc(C(=O)N(C)[C@@H](CC(C)C)C(=O)N2C[C@]3(C[C@H]2C#N)C(=O)Nc2ccccc23)nc1 [Example 193] | 100 to 1000
